Reference: patent US7094869B2, “Low molecular weight peptidomimetic growth hormone secretagogues” (Genentech, Inc., priority 1994, dated 2006)
Like-named read-outs stand apart in the source and are kept apart here.

Target: rat pituitary cells (Rattus norvegicus, UniProt O08725)
Method in brief: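 Primary rat anterior pituitary cells, cultured three days in DME low glucose/10% FBS, were washed, pre-incubated twice for 15 min, then challenged 15 min with test compounds (DMSO ≤0.1%) at 37 °C. Released GH was measured by two-site ELISA; EC50 came from 4-parameter fits, mean of three to four independent determinations.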

Chain of rat pituitary cells (O08725 whole entry): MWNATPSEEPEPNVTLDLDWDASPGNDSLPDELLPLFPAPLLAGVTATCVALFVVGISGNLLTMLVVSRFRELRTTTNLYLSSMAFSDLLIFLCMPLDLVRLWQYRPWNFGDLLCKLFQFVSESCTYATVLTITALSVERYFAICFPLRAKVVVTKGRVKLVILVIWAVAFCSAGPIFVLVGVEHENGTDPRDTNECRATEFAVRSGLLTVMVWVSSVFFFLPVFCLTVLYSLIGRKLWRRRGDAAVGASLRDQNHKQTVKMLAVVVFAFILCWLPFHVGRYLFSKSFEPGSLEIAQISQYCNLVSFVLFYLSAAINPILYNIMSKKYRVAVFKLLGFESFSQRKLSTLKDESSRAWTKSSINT

Structure (SMILES): NCCCC[C@H](NC(=O)[C@H](Cc1ccccc1)NC(=O)[C@@H](Cc1ccc2ccccc2c1)NC(=O)[C@@H](Cc1ccc2ccccc2c1)NC(=O)C1CCNCC1)C(N)=O [(inip) b b F K amide, (inip)-DβNal-DβNal-Phe-Lys-amide]
- concentration at which GH release is significantly (P<0.05) increased (15 min exposure): 0.3 nM
- concentration by which GH release reaches a plateau (15 min exposure): 1 nM
- fold more potent than GHRP-6 (ratio of pit cell EC50s): over 30 fold
- EC50 (read-out: EC50 of the representative GH dose response, single representative experiment, 15 min exposure): 0.16 nM
- EC50 (read-out: mean EC50, mean ± SE of independent EC50s): 0.18 ± 0.04 nM
